Where “and” joins values, the source holds several entries; their conditions need not be identical. Identical values can stand only once.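 Results reflect a 48-hour exposure of cells in 96-well plates to compound at five concentrations. The concentration for 50% growth inhibition is given as GI50. At the TGI there is no net growth.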
System: A498 renal
Assay: inhibition of tumour cell growth, NCI panel, 48 h

SMILES | TGI | GI50 [µM]
C(/C=C(\Nc1ccccc1)C12CC3CC(CC(C3)C1)C2)=Nc1ccccc1 | > 100 µM | 
N#CC1=C(c2ccccc2)NNC(c2ccc(Cl)cc2)CC1=O (stereo not given) | > 100 µM | 
NCCNCC1CCNCC1 | > 100 µM | 
c1ccc2c(c1)[nH]c1c2cc[n+]2cc3c(cc12)CCCC3 | 13.9 µM and > 100 µM | 3.48
CSC(=Nc1ccccc1)N(c1ccccc1)c1nc(=[N+](C)C)ss1 | 27.9 µM | 

System: K-562 leukemia
Assay: inhibition of tumour cell growth, NCI panel, 48 h

SMILES | TGI | GI50 [µM]
C(/C=C(\Nc1ccccc1)C12CC3CC(CC(C3)C1)C2)=Nc1ccccc1 | 35.1 µM | 
CC1=NN(C(=O)CC(=O)Nc2ccccc2F)C(=O)C1N=Nc1ccccc1[N+](=O)[O-] (stereo not given) | > 100 µM | 
NCCNCC1CCNCC1 | > 100 µM | 
c1ccc2c(c1)[nH]c1c2cc[n+]2cc3c(cc12)CCCC3 | 12.5 µM and 10.8 µM | 2.76
CSC(=Nc1ccccc1)N(c1ccccc1)c1nc(=[N+](C)C)ss1 | 2.89 µM | 

System: TK-10 renal
Assay: inhibition of tumour cell growth, NCI panel, 48 h

SMILES | TGI [µM]
C(/C=C(\Nc1ccccc1)C12CC3CC(CC(C3)C1)C2)=Nc1ccccc1 | 45.4
CC1=NN(C(=O)CC(=O)Nc2ccccc2F)C(=O)C1N=Nc1ccccc1[N+](=O)[O-] (stereo not given) | > 100
N#CC1=C(c2ccccc2)NNC(c2ccc(Cl)cc2)CC1=O (stereo not given) | > 100
NCCNCC1CCNCC1 | > 100
c1ccc2c(c1)[nH]c1c2cc[n+]2cc3c(cc12)CCCC3 | 25.6
CSC(=Nc1ccccc1)N(c1ccccc1)c1nc(=[N+](C)C)ss1 | 27.7

System: HS 578T breast
Assay: inhibition of tumour cell growth, NCI panel, 48 h

SMILES | TGI | GI50 [µM]
C(/C=C(\Nc1ccccc1)C12CC3CC(CC(C3)C1)C2)=Nc1ccccc1 | > 100 µM | 
NCCNCC1CCNCC1 | > 100 µM | 
c1ccc2c(c1)[nH]c1c2cc[n+]2cc3c(cc12)CCCC3 | 12.2 µM and > 100 µM | 2.63

System: T-47D breast
Assay: inhibition of tumour cell growth, NCI panel, 48 h

SMILES | TGI | GI50 [µM]
C(/C=C(\Nc1ccccc1)C12CC3CC(CC(C3)C1)C2)=Nc1ccccc1 | 99.6 µM | 
NCCNCC1CCNCC1 | > 100 µM | 
c1ccc2c(c1)[nH]c1c2cc[n+]2cc3c(cc12)CCCC3 | 13.6 µM and 22.4 µM | 2.47

System: NCI-H522 lung
Assay: inhibition of tumour cell growth, NCI panel, 48 h

SMILES | TGI | GI50 [µM]
C(/C=C(\Nc1ccccc1)C12CC3CC(CC(C3)C1)C2)=Nc1ccccc1 | 24.3 µM | 
CC1=NN(C(=O)CC(=O)Nc2ccccc2F)C(=O)C1N=Nc1ccccc1[N+](=O)[O-] (stereo not given) | > 100 µM | 
N#CC1=C(c2ccccc2)NNC(c2ccc(Cl)cc2)CC1=O (stereo not given) | 51.7 µM | 
NCCNCC1CCNCC1 | > 100 µM | 
c1ccc2c(c1)[nH]c1c2cc[n+]2cc3c(cc12)CCCC3 | 5.48 µM and 6.23 µM | 2.27
CSC(=Nc1ccccc1)N(c1ccccc1)c1nc(=[N+](C)C)ss1 | 1.72 µM | 

System: SK-MEL-28 melanoma
Assay: inhibition of tumour cell growth, NCI panel, 48 h

SMILES | TGI
C(/C=C(\Nc1ccccc1)C12CC3CC(CC(C3)C1)C2)=Nc1ccccc1 | 47.1 µM
CC1=NN(C(=O)CC(=O)Nc2ccccc2F)C(=O)C1N=Nc1ccccc1[N+](=O)[O-] (stereo not given) | > 100 µM
N#CC1=C(c2ccccc2)NNC(c2ccc(Cl)cc2)CC1=O (stereo not given) | > 100 µM
NCCNCC1CCNCC1 | > 100 µM
c1ccc2c(c1)[nH]c1c2cc[n+]2cc3c(cc12)CCCC3 | 5.26 µM and 4.19 µM
CSC(=Nc1ccccc1)N(c1ccccc1)c1nc(=[N+](C)C)ss1 | 2.83 µM

System: NCI-H23 lung
Assay: inhibition of tumour cell growth, NCI panel, 48 h

SMILES | TGI [µM]
C(/C=C(\Nc1ccccc1)C12CC3CC(CC(C3)C1)C2)=Nc1ccccc1 | 36.8
CC1=NN(C(=O)CC(=O)Nc2ccccc2F)C(=O)C1N=Nc1ccccc1[N+](=O)[O-] (stereo not given) | > 100
N#CC1=C(c2ccccc2)NNC(c2ccc(Cl)cc2)CC1=O (stereo not given) | > 100
NCCNCC1CCNCC1 | > 100
c1ccc2c(c1)[nH]c1c2cc[n+]2cc3c(cc12)CCCC3 | 6.95
CSC(=Nc1ccccc1)N(c1ccccc1)c1nc(=[N+](C)C)ss1 | 19.8

System: OVCAR-3 ovarian
Assay: inhibition of tumour cell growth, NCI panel, 48 h

SMILES | TGI [µM] | GI50 [µM]
C(/C=C(\Nc1ccccc1)C12CC3CC(CC(C3)C1)C2)=Nc1ccccc1 | 21.1 | 
CC1=NN(C(=O)CC(=O)Nc2ccccc2F)C(=O)C1N=Nc1ccccc1[N+](=O)[O-] (stereo not given) | > 100 | 
NCCNCC1CCNCC1 | > 100 | 
c1ccc2c(c1)[nH]c1c2cc[n+]2cc3c(cc12)CCCC3 |  | 2.91
CSC(=Nc1ccccc1)N(c1ccccc1)c1nc(=[N+](C)C)ss1 | 4.83 | 

System: SNB-75 CNS
Assay: inhibition of tumour cell growth, NCI panel, 48 h

SMILES | TGI | GI50 [µM]
C(/C=C(\Nc1ccccc1)C12CC3CC(CC(C3)C1)C2)=Nc1ccccc1 | 46.4 µM | 
CC1=NN(C(=O)CC(=O)Nc2ccccc2F)C(=O)C1N=Nc1ccccc1[N+](=O)[O-] (stereo not given) | > 100 µM | 
N#CC1=C(c2ccccc2)NNC(c2ccc(Cl)cc2)CC1=O (stereo not given) | 41.7 µM | 
NCCNCC1CCNCC1 | > 100 µM | 
c1ccc2c(c1)[nH]c1c2cc[n+]2cc3c(cc12)CCCC3 | 12.9 µM and 35.9 µM | 3.07
CSC(=Nc1ccccc1)N(c1ccccc1)c1nc(=[N+](C)C)ss1 | 16.3 µM | 

System: LXFL 529 NSCLC
Assay: inhibition of tumour cell growth, NCI panel, 48 h

SMILES | TGI [µM]
CC1=NN(C(=O)CC(=O)Nc2ccccc2F)C(=O)C1N=Nc1ccccc1[N+](=O)[O-] (stereo not given) | > 100
N#CC1=C(c2ccccc2)NNC(c2ccc(Cl)cc2)CC1=O (stereo not given) | > 100

System: MDA-MB-231 breast
Assay: inhibition of tumour cell growth, NCI panel, 48 h

SMILES | TGI | GI50 [µM]
C(/C=C(\Nc1ccccc1)C12CC3CC(CC(C3)C1)C2)=Nc1ccccc1 | 34.1 µM | 
NCCNCC1CCNCC1 | > 100 µM | 
c1ccc2c(c1)[nH]c1c2cc[n+]2cc3c(cc12)CCCC3 | 10 µM and 12.7 µM | 2.97

System: 786-0 renal
Assay: inhibition of tumour cell growth, NCI panel, 48 h

SMILES | TGI | GI50 [µM]
C(/C=C(\Nc1ccccc1)C12CC3CC(CC(C3)C1)C2)=Nc1ccccc1 | 29.3 µM | 
CC1=NN(C(=O)CC(=O)Nc2ccccc2F)C(=O)C1N=Nc1ccccc1[N+](=O)[O-] (stereo not given) | > 100 µM | 
NCCNCC1CCNCC1 | > 100 µM | 
c1ccc2c(c1)[nH]c1c2cc[n+]2cc3c(cc12)CCCC3 | 16.4 µM and 12.7 µM | 4
CSC(=Nc1ccccc1)N(c1ccccc1)c1nc(=[N+](C)C)ss1 | 19.3 µM | 

System: EKVX NSCLC
Assay: inhibition of tumour cell growth, NCI panel, 48 h

SMILES | TGI [µM]
C(/C=C(\Nc1ccccc1)C12CC3CC(CC(C3)C1)C2)=Nc1ccccc1 | 39.4
CC1=NN(C(=O)CC(=O)Nc2ccccc2F)C(=O)C1N=Nc1ccccc1[N+](=O)[O-] (stereo not given) | > 100
NCCNCC1CCNCC1 | > 100
c1ccc2c(c1)[nH]c1c2cc[n+]2cc3c(cc12)CCCC3 | 32.4
CSC(=Nc1ccccc1)N(c1ccccc1)c1nc(=[N+](C)C)ss1 | 29.5

System: M14 melanoma
Assay: inhibition of tumour cell growth, NCI panel, 48 h

SMILES | TGI | GI50 [µM]
C(/C=C(\Nc1ccccc1)C12CC3CC(CC(C3)C1)C2)=Nc1ccccc1 | 32.6 µM | 
CC1=NN(C(=O)CC(=O)Nc2ccccc2F)C(=O)C1N=Nc1ccccc1[N+](=O)[O-] (stereo not given) | > 100 µM | 
N#CC1=C(c2ccccc2)NNC(c2ccc(Cl)cc2)CC1=O (stereo not given) | 68.9 µM | 
NCCNCC1CCNCC1 | > 100 µM | 
c1ccc2c(c1)[nH]c1c2cc[n+]2cc3c(cc12)CCCC3 | 14 µM and 7.29 µM | 3.01
CSC(=Nc1ccccc1)N(c1ccccc1)c1nc(=[N+](C)C)ss1 | 2.5 µM | 

System: KM12 colon
Assay: inhibition of tumour cell growth, NCI panel, 48 h

SMILES | TGI | GI50 [µM]
C(/C=C(\Nc1ccccc1)C12CC3CC(CC(C3)C1)C2)=Nc1ccccc1 | 35.2 µM | 
CC1=NN(C(=O)CC(=O)Nc2ccccc2F)C(=O)C1N=Nc1ccccc1[N+](=O)[O-] (stereo not given) | > 100 µM | 
N#CC1=C(c2ccccc2)NNC(c2ccc(Cl)cc2)CC1=O (stereo not given) | > 100 µM | 
NCCNCC1CCNCC1 | > 100 µM | 
c1ccc2c(c1)[nH]c1c2cc[n+]2cc3c(cc12)CCCC3 | 9.85 µM and 6.53 µM | 2.3
CSC(=Nc1ccccc1)N(c1ccccc1)c1nc(=[N+](C)C)ss1 | 13.7 µM | 

System: XF 498 CNS
Assay: inhibition of tumour cell growth, NCI panel, 48 h

SMILES | TGI [µM]
CC1=NN(C(=O)CC(=O)Nc2ccccc2F)C(=O)C1N=Nc1ccccc1[N+](=O)[O-] (stereo not given) | > 100
N#CC1=C(c2ccccc2)NNC(c2ccc(Cl)cc2)CC1=O (stereo not given) | 77.1

— PubChem BioAssay (NCI)
